Source: PMC5746060, “General and Modular Strategy for Designing Potent, Selective, and Pharmacologically Compliant Inhibitors of Rhomboid Proteases” (Cell Chemical Biology, 2017)
Starred links: 1 amine or outer side, 2 acyl side, 3 side chain; linkers in the order of their positions; H or OH if unused. Non-standard residues stand in square brackets, D forms with d. Residues, ends and D or L forms follow the SMILES beside them. *: point of attachment. NH(4-phenylbutyl) = c1ccc(CCCCN*)cc1; X1 = C[C@H](N[*:1])C(=O)C(=O)[*:2]; NHPhenethyl = c1ccc(CCN*)cc1

Assays:
endogenous GlpG = target: T1, endogenous GlpG (Escherichia coli, UniProt P09391); experiment: inhibition of endogenous GlpG in live E. coli (LacYTM2 substrate cleavage, western blot); format: cell-based; conditions: live E. coli NR698, substrate MBP-FLAG-LacYTM2-Trx; read-out: IC50 In Vivo (GlpG)
T1 construct: E. coli expressing endogenous levels of GlpG; endogenous in cells; host or cells: E. coli K12 NR698 (permeabilised outer membrane)
Protocol: The substrate MBP-FLAG-LacYTM2-Trx ([Strisovsky et al., 2009]) was expressed in wild-type E. coli NR698 with genetically permeabilized outer membrane ([Ruiz et al., 2005]) in the presence of increasing concentrations of inhibitors as described in STAR Methods. Substrate cleavage was measured in cell lysates by immunoblotting for FLAG and quantified using near-infrared fluorescence. The reported in vivo IC50 values are best-fit means with SD representative of 2–3 measurements. DMSO, dimethylsulfoxide vehicle control; KO, E. coli glpG::tet. […] The substrate AmyESP-MBP-FLAG-LacYTM2-Trx-HA was expressed in Bacillus subtilis 168 (ydcA::neo, xdkE::AmyESP-MBP-LacYTM2-Trx(erm, lin)) (BS87) in the presence of increasing concentrations of inhibitors as described in STAR Methods. Substrate cleavage was detected in cell lysates by immunoblotting for FLAG and detection by near-infrared fluorescence. […] This treatment was necessary because the specific cleavage product could not be resolved sufficiently well from the non-specific bands to be integrated separately. DMSO, dimethylsulfoxide vehicle control; YqgP KO, Bacillus subtilis 168 (ydcA::neo, yqgP::tet, xdkE::AmyESP-MBP-LacYTM2-Trx(erm, lin)) (BS88).

AarA = target: T2, AarA (Providencia stuartii, UniProt P46116); experiment: activity-based probe competition assay, rhomboid panel; format: biochemical; conditions: 50 μM and 0.5 μM; outcompeted the ABP even at 500 nM
T2 construct: made in house
T2 sequence (P46116 1-281): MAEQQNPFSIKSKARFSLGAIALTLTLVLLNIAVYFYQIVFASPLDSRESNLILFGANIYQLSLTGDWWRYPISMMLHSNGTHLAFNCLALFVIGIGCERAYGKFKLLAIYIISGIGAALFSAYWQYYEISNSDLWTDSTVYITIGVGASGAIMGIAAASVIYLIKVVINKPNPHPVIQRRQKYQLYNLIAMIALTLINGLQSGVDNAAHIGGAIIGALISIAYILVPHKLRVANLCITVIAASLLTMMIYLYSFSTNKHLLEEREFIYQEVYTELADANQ
Source text: (§1) Any enzyme inhibitors to be used as specific tools for cell biology or as starting points for drug development must show sufficient level of selectivity toward their intended target. This is particularly important for compounds that react with the catalytic nucleophile common to many serine hydrolases. […] To map the selectivity of peptidyl ketoamides more objectively and widely, we employed activity-based probe (ABP) competition assays that enable a more general and substrate-independent measurement of inhibitory potency, because they rely solely on the competition between a fluorescently labeled activity-based probe and the tested inhibitor ([Nguyen et al., 2015], [Serim et al., 2012]). The assays we employed used fluorophosphonate ABPs that target the catalytic serine of a wide-range of serine hydrolases ([Bachovchin et al., 2014]), including rhomboids ([Xue et al., 2012]), and are thus very practical general detection reagents even for serine hydrolases for which sensitive substrates might not be available.
(§2) Figure 5 Selectivity of Peptidyl Ketoamides (A) Selectivity of compounds 9, 10, and 11 for nine rhomboid proteases was profiled using activity-based probe competition assay at 50 μM and 0.5 μM concentration. The upper limit of enzyme concentration was 0.4 μM. (B) Selectivity of compounds 9, 10, and 11 against human serine hydrolases was analyzed using EnPlex as described ([Bachovchin et al., 2014]).
(§3) For inhibitor selectivity profiling against rhomboid proteases ([Wolf et al., 2015]), 400 ng of a purified protein preparation of E. coli GlpG was diluted in 30 μL of reaction buffer (20 mM HEPES, pH 7.4, with 0.05% (w/v) DDM). For other rhomboids, amounts were taken that gave similar labeling intensity during profiling. Rhomboids were incubated for 30 min at room temperature with the indicated concentration of compound, 100 μM DCI as positive control, or an equal volume of DMSO as negative control. Next, TAMRA-FP serine hydrolase probe (Thermo Fisher #88318) was added to a final concentration of 1 ìM and incubated for 2 h at 37°C in the dark. The reaction was stopped by addition of 4× Laemmli buffer and the reaction mixture was resolved on 15% SDS-PAGE. Gels were scanned on a Typhoon Trio+ and analyzed using ImageJ. The intensity of each rhomboid protease band calculated by ImageJ was normalized against its corresponding DMSO-treated counterpart (100% activity) to indicate the residual activity left after inhibition. The remaining activity was used to calculate the percentage of inhibition depicted in the heatmap. Selectivity profiles against human serine hydrolases were determined by EnPlex as described previously ([Bachovchin et al., 2014]).

DmRho1 = target: T3, DmRho1 (Drosophila melanogaster, UniProt P20350); experiment: as above; format: biochemical; conditions: 50 μM and 0.5 μM
T3 construct: made in house
T3 sequence (P20350 1-355): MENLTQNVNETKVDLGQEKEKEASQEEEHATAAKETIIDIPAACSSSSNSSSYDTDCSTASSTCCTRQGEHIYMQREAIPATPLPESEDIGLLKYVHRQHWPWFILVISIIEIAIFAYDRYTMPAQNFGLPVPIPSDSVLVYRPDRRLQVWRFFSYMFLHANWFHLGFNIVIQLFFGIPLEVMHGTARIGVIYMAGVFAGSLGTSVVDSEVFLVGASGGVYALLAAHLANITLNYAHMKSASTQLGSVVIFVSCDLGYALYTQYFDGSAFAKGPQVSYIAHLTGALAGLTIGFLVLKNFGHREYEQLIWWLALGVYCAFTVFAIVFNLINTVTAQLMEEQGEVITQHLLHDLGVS
Source text: as §1, §2, §3

HiGlpG = target: T4, HiGlpG (Haemophilus influenzae, UniProt P44783); experiment: as above; format: biochemical; conditions: 50 μM and 0.5 μM; outcompeted the ABP even at 500 nM
T4 construct: made in house
Source text: as §1, §2, §3

MmRHBDL3 = target: T5, MmRHBDL3 (Mus musculus, UniProt P58873); experiment: as above; format: biochemical; conditions: 50 μM and 0.5 μM
T5 construct: made in house
T5 sequence (P58873 1-404): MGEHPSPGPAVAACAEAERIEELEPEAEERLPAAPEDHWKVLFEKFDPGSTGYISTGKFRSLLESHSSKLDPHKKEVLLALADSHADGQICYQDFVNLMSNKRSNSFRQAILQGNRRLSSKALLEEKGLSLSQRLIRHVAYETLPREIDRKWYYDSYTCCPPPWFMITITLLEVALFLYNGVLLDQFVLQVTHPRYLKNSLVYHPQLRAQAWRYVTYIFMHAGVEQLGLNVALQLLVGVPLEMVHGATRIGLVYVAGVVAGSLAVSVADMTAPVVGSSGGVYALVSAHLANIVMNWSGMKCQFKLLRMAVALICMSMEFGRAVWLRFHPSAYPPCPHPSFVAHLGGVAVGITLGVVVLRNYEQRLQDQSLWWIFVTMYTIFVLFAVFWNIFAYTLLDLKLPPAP
Source text: as §1, §2, §3

MjROM = experiment: as above; format: biochemical, Methanocaldococcus jannaschii; conditions: 50 μM and 0.5 μM; outcompeted the ABP even at 500 nM
Source text: as §1, with “The assays we employed used fluorophosphonate ABPs that target the catalytic serine of a wide-range of serine hydrolases ([Bachovchin et al., 2014]), including rhomboids ([Xue et al., 2012]), and are thus very practical general detection reagents even for serine hydrolases for which sensitive substrates might not be available.” left out
as §2, with “The upper limit of enzyme concentration was 0.4 μM.” left out
(§4) For inhibitor selectivity profiling against rhomboid proteases ([Wolf et al., 2015]), 400 ng of a purified protein preparation of E. coli GlpG was diluted in 30 μL of reaction buffer (20 mM HEPES, pH 7.4, with 0.05% (w/v) DDM). […] Gels were scanned on a Typhoon Trio+ and analyzed using ImageJ. […]

AaROM = experiment: as above; format: biochemical, Aquifex aeolicus; conditions: 50 μM and 0.5 μM
Source text: as §1, with “The assays we employed used fluorophosphonate ABPs that target the catalytic serine of a wide-range of serine hydrolases ([Bachovchin et al., 2014]), including rhomboids ([Xue et al., 2012]), and are thus very practical general detection reagents even for serine hydrolases for which sensitive substrates might not be available.” left out
as §2, with “The upper limit of enzyme concentration was 0.4 μM.” left out
as §4

T1 sequence (P09391 whole entry): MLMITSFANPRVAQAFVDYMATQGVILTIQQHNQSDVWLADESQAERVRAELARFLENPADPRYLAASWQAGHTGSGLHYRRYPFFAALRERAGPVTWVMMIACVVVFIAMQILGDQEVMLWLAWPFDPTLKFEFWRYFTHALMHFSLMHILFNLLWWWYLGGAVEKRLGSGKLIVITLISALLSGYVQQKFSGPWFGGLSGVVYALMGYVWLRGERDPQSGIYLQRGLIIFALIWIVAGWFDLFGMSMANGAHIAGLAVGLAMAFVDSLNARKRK
T4 sequence (P44783 whole entry): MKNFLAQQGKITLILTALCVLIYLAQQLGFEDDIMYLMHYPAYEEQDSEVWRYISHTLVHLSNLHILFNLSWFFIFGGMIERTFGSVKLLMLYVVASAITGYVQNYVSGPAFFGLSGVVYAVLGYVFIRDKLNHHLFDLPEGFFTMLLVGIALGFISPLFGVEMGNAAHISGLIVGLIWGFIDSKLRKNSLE

CC(=O)N[C@@H](CCCNC(=N)N)C(=O)N[C@H](C(=O)N[C@@H](CCCNC(=N)N)C(=O)N[C@@H](Cc1c[nH]cn1)C(=O)N[C@@H](C)C(=O)C(=O)NCCc1ccccc1)C(C)C [compound 9, Ac-RVRHA-CONH-phenylethyl] (Ac-RVRH[X1]-NHPhenethyl)
IC50 (endogenous GlpG): 8.8 ± 0.4 nM
competition with ABP labeling of AarA (AarA): potently competed
competition with ABP labeling of DmRho1 (DmRho1): none of these compounds were able to compete
competition with ABP labeling of HiGlpG (HiGlpG): potently competed
competition with ABP labeling of MmRHBDL3 (MmRHBDL3): none of these compounds were able to compete
competition with ABP labeling of MjROM (MjROM): potently competed
competition with ABP labeling of AaROM (AaROM): none of these compounds were able to compete

CC(=O)N[C@@H](CCCNC(=N)N)C(=O)N[C@H](C(=O)N[C@@H](CCCNC(=N)N)C(=O)N[C@@H](Cc1c[nH]cn1)C(=O)N[C@@H](C)C(=O)C(=O)NCCCCc1ccccc1)C(C)C [compound 11, Ac-RVRHA-CONH-phenylbutyl] (Ac-RVRH[X1]-{NH(4-phenylbutyl)})
IC50 (endogenous GlpG): 2.7 ± 0.1 nM
competition with ABP labeling of AarA (AarA): potently competed
competition with ABP labeling of DmRho1 (DmRho1): none of these compounds were able to compete
competition with ABP labeling of HiGlpG (HiGlpG): potently competed
competition with ABP labeling of MmRHBDL3 (MmRHBDL3): none of these compounds were able to compete
competition with ABP labeling of MjROM (MjROM): potently competed
competition with ABP labeling of AaROM (AaROM): none of these compounds were able to compete
